Measured values published in patent US20260078158A1, “COMPOSITIONS COMPRISING CXCL10-DERIVED PEPTIDES AND METHODS OF USE THEREOF” (priority 2022, published 2026).
Converted amounts (≈) assume the structure as drawn. Like-named read-outs stand apart in the source and are kept apart here. Where a SMILES comes first, the peptide text is derived from it. [ ]: non-standard residue; d: D form.

What was measured:
Streptococcus pneumoniae = assay: microbe, parasite or virus in culture; format: cell-based; settings: for MIC50 fold change: Streptococcus pneumoniae (5 isolates)
Enterococcus faecium = assay: microbe, parasite or virus in culture; format: cell-based; settings: for MIC50 fold change: Enterococcus faecium (3 isolates)
Enterococcus faecalis = assay: microbe, parasite or virus in culture; format: cell-based; settings: for MIC50 fold change: Enterococcus faecalis (2 isolates)
Escherichia coli = assay: microbe, parasite or virus in culture; format: cell-based; settings: for MIC50 fold change: Escherichia coli (5 isolates)
[1] = system: Acinetobacter baumannii-calcoaceticus complex; assay: microbe, parasite or virus in culture; format: cell-based; settings: for MIC: -calcoaceticus complex; for MIC50 fold change: Acinetobacter spp. (5 isolates)
Pseudomonas aeruginosa = assay: microbe, parasite or virus in culture; format: cell-based; settings: Pseudomonas aeruginosa (5 isolates)
Klebsiella pneumoniae = Klebsiella pneumoniae (5 isolates)
[2] = system: E. cloacae species complex; assay: microbe, parasite or virus in culture; format: cell-based, Enterobacter cloacae; settings: Enterobacter spp. (5 isolates)
Staphylococcus aureus = assay: microbe, parasite or virus in culture; format: cell-based; settings: relative to P194-acetate; Staphylococcus aureus (5 isolates)

Molecule	MIC50 fold change (Pseudomonas aeruginosa; relative to D8-acetate)	MIC50 fold change (Enterococcus faecium; relative to D8-acetate)	MIC50 fold change (Enterococcus faecalis; relative to D8-acetate)	MIC50 fold change (Klebsiella pneumoniae; relative to D8-acetate)	MIC50 fold change (Escherichia coli; relative to D8-acetate)	MIC50 fold change ([1]; relative to D8-acetate)	MIC50 fold change ([2]; relative to D8-acetate)	also measured
CC[C@@H](C)[C@@H](NC(=O)[C@@H](CS)NC(=O)[C@@H](CCSC)NC(=O)[C@@H](CS)NC(=O)[C@@H](CCCNC(=N)N)NC(=O)[C@H](NC(=O)[C@H](NC(=O)[C@H](N)CCCNC(=N)N)[C@H](C)O)C(C)C)C(=O)O [P182 A, RTVRCMCI] (H-[dR][dT][dV][dR][dC][dM][dC][dI]-OH; N-terminus and C-terminus assumed)								MIC (Streptococcus pneumoniae): 32 µg/mL (≈ 32.6 µM); MIC (Enterococcus faecium): 8 µg/mL (≈ 8.15 µM); MIC (Enterococcus faecalis): 8 µg/mL (≈ 8.15 µM); MIC (Escherichia coli): 16 µg/mL (≈ 16.3 µM); MIC [1]: 16 µg/mL (≈ 16.3 µM)
RAVRCTCI [Peptide D8-T2A]	>2	2	2	2	2	2	1	
CC[C@@H](C)[C@@H](NC(=O)[C@@H](CS)NC(=O)[C@@H](CCSC)NC(=O)[C@@H](CS)NC(=O)[C@@H](CCCNC(=N)N)NC(=O)[C@H](NC(=O)[C@H](NC(=O)[C@H](N)CCCNC(=N)N)[C@H](C)O)C(C)C)C(=O)O [P182 F, RTVRCMCI] (H-[dR][dT][dV][dR][dC][dM][dC][dI]-OH; N-terminus and C-terminus assumed)								MIC (Streptococcus pneumoniae): 32 µg/mL (≈ 32.6 µM); MIC (Enterococcus faecium): 8 µg/mL (≈ 8.15 µM); MIC (Enterococcus faecalis): 8 µg/mL (≈ 8.15 µM); MIC [1]: 16 µg/mL (≈ 16.3 µM)
ATVRCTCI [Peptide D8-R1A]	2	2	2	4	4	4	2	
RTVACTCI [Peptide D8-R4A]	>2	8	>4	>8	>16	>32	>4	
RAVRCRCI [Peptide P194-T2A]								MIC50 fold change (Streptococcus pneumoniae; relative to P194-acetate): 2; MIC50 fold change (Staphylococcus aureus): 2; MIC50 fold change (Pseudomonas aeruginosa; relative to P194-acetate): >2; MIC50 fold change (Enterococcus faecium; relative to P194-acetate): 2; MIC50 fold change (Enterococcus faecalis; relative to P194-acetate): 4; MIC50 fold change (Klebsiella pneumoniae; relative to P194-acetate): 2; MIC50 fold change (Escherichia coli; relative to P194-acetate): 0.5; MIC50 fold change ([1]; relative to P194-acetate): 0.5; MIC50 fold change ([2]; relative to P194-acetate): 0.5
RTVRCTCA [Peptide D8-I8A]	2	4	4	4	4	2	1	
RTVRCACI [Peptide D8-T6A]	2	1	1	2	1	2	0.5	MIC50 fold change (Streptococcus pneumoniae; relative to D8-acetate): 1
